Converted amounts (≈) assume the structure as drawn.

What all share (type): functional
One experiment has as its system Spodoptera litura. Nature of the experiment: Insecticidal activity against third-instar larvae of Spodoptera litura in soybean seedlings assessed as mortality at 500 ppm after 48 hr.
Experiment [1] has as its system Henosepilachna vigintioctopunctata. Kind of experiment: Insecticidal activity against third-instar larvae of Henosepilachna vigintioctopunctata assessed as mortality after 2 days. To be noted: 48 h.
A further experiment relates to Tetranychus urticae. Kind of experiment: Insecticidal activity against Tetranychus urticae (two-spotted spider mite) in kidney bean plant leaf assessed as mortality at 500 ppm after 2 days. To be noted: 48 h.
Another experiment deals with Laodelphax striatellus. Nature of the experiment: Insecticidal activity against 3rd instar larva of Laodelphax striatella (small brown planthopper) assessed as mortality at 50 ppm after 6 days. To be noted: 144 h.
A further experiment has as its system Chilo suppressalis. Nature of the experiment: Insecticidal activity against 5th instar larva of Chilo suppressalis assessed as mortality at 50 ug/g after 48 hr.

As for `CCCCCCCNC(=O)C1(C#N)SCC(N(C)C)CS1` (stereo not given), the mortality at 500 ppm with Spodoptera litura turned out to be 80%; with Tetranychus urticae it was 90%. In addition, the LC50 in experiment [1] came to 23 µg/mL (≈ 69.8 µM). The mortality at 50 ppm in the experiment on Laodelphax striatellus was 80%. Besides, the mortality in the experiment on Chilo suppressalis stood at 100%.

Consider `CCCCCCNC(=O)C1(C#N)SCC(N(C)C)CS1` (stereo not given), for which the mortality at 500 ppm is 70% in the experiment on Spodoptera litura and 100% with Tetranychus urticae. Moreover, the 50% lethal concentration (LC50) in experiment [1] was 10 µg/mL (≈ 31.7 µM). The mortality at 50 ppm with Laodelphax striatellus was determined as 65%. Moreover, the mortality with Chilo suppressalis stood at 100%.

In the case of `CN(C)C(=O)C1(C#N)SCC(N(C)C)CS1` (stereo not given), the mortality at 500 ppm in the experiment with Spodoptera litura came out at 80%; with Tetranychus urticae, 70%. The LC50 in experiment [1] turned out to be 11 µg/mL (≈ 42.4 µM). Besides, in the experiment with Laodelphax striatellus, the mortality at 50 ppm is 20%. Further, the mortality with Chilo suppressalis amounted to 100%.

Take `CCCCCCCCCNC(=O)C1(C#N)SCC(N(C)C)CS1` (stereo not given): the mortality at 500 ppm was found to be 90% in the experiment on Spodoptera litura and 100% in the experiment with Tetranychus urticae. Further, the LC50 in experiment [1] stood at 23 µg/mL (≈ 64.3 µM). In addition, the mortality at 50 ppm with Laodelphax striatellus was 100%. Moreover, the mortality in the experiment on Chilo suppressalis stood at 100%.

As to `CN(C)C1CSC(C#N)(C(N)=O)SC1` (stereo not given), the mortality at 500 ppm in the experiment on Spodoptera litura and in the experiment with Tetranychus urticae was 100% in each case. Moreover, the LC50 in experiment [1] turned out to be 30 µg/mL (≈ 130 µM). The mortality at 50 ppm in the experiment on Laodelphax striatellus stood at 35%. Further, the mortality in the experiment with Chilo suppressalis was 100%.

As for `CCCNC(=O)C1(C#N)SCC(N(C)C)CS1` (stereo not given), the mortality at 500 ppm stood at 60% in the experiment on Spodoptera litura and 100% with Tetranychus urticae. Also, the LC50 in experiment [1] worked out at 11 µg/mL (≈ 40.2 µM). The mortality at 50 ppm in the experiment on Laodelphax striatellus was 20%. Further, the mortality in the experiment on Chilo suppressalis amounted to 100%.
